This test concerns the target T1, human σ1 receptor (Homo sapiens, UniProt Q99720).
T1 construct: expressed in transfected cells; host or cells: HEK-293 (membranes)
The test can be described thus: Human σ1 receptor radioligand assay. The format is binding. The note with it: transfected HEK-293 membranes, 5 nM [3H](+)-pentazocine as radioligand. The protocol:
Human σ1 Receptor Radioligand Assay
To investigate binding properties of test compounds to human σ1 receptor, transfected HEK-293 membranes and [^3H](+)-pentazocine (Perkin Elmer, NET-1056), as the radioligand, were used. The assay was carried out with 7 μg of membrane suspension, 5 nM of [^3H](+)-pentazocine in either absence or presence of either buffer or 10 μM Haloperidol for total and non-specific binding, respectively. Binding buffer contained Tris-HCl 50 mM at pH 8. Plates were incubated at 37° C. for 120 minutes. After the incubation period, the reaction mix was then transferred to Multiscreen HTS, FC plates (Millipore), filtered and plates were washed 3 times with ice-cold 10 mM Tris-HCL (pH7.4). Filters were dried and counted at approximately 40% efficiency in a MicroBeta scintillation counter (Perkin-Elmer) using EcoScint liquid scintillation cocktail
T1 sequence (Q99720 whole entry): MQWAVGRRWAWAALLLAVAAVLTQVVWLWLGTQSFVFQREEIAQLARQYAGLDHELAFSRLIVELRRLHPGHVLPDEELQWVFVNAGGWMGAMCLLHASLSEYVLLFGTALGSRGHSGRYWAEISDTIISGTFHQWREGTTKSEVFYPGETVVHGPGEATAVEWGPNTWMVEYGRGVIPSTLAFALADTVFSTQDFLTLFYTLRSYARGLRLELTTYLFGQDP
Consider `O=C1N(c2ccccc2)C[C@]2(CC[C@@H](NCc3ccccc3)CC2)OC12CC2` [Example 12, (5r,8r)-8-(benzylamino)-12-phenyl-4-oxa-12-azadispiro[2.1.5.3]tridecan-13-one], for which the Ki was at least 500 nM. In the case of `CC(C)CN(C)[C@H]1CC[C@@]2(CC1)CN(C(=O)c1ccccc1)CC1(CC1)O2` [Example 60, ((5s,8s)-8-[isobutyl(methyl)amino]-4-oxa-12-azadispiro[2.1.5.3]tridecan-12-yl)(phenyl)methanone], the Ki is below 500 nM. Under `CCN1C[C@]2(CC[C@H](NC)CC2)OC(C)(C)C1=O` [Example 48, (6s,9s)-4-ethyl-2,2-dimethyl-9-(methylamino)-1-oxa-4-azaspiro[5.5]undecan-3-one acetate] stands at least 500 nM; under `CCN1C[C@]2(CC[C@H](NCCc3ccccc3)CC2)OC2(CC2)C1=O` [Example 6, (5s,8s)-12-ethyl-8-[(2-phenylethyl)amino]-4-oxa-12-azadispiro[2.1.5.3]tridecan-13-one], below 500 nM; under `CCN1C[C@]2(CC[C@H](NC)CC2)OC2(CC2)C1=O` [Example 22, (5s,8s)-12-ethyl-8-(methylamino)-4-oxa-12-azadispiro[2.1.5.3]tridecan-13-one acetate], at least 500 nM. With `CCN1C[C@]2(CC[C@@H](N(C)Cc3ccccc3)CC2)OC2(CC2)C1=O` [Example 16, (5r,8r)-8-[benzyl(methyl)amino]-12-ethyl-4-oxa-12-azadispiro[2.1.5.3]tridecan-13-one], the Ki is below 100 nM. As for `CN(Cc1ccccc1)[C@H]1CC[C@]2(CC1)CN(c1ccccc1)C(=O)C1(CC1)O2` [Example 14, (5r,8r)-8-[benzyl(methyl)amino]-12-phenyl-4-oxa-12-azadispiro[2.1.5.3]tridecan-13-one], the Ki is below 500 nM. Compound `CCN1C[C@]2(CC[C@@H](NCc3ccccc3)CC2)OCC1=O` [Example 37, (6r,9r)-9-(benzylamino)-4-ethyl-1-oxa-4-azaspiro[5.5]undecan-3-one] gave a Ki of at least 500 nM. Turning to `CCN1C[C@]2(CC[C@H](N(C)CCC(C)C)CC2)OCC1=O` [Example 52, (6s,9s)-4-ethyl-9-(isopentyl(methyl)amino)-1-oxa-4-azaspiro[5.5]undecan-3-one], the Ki is below 500 nM. Under `CCN1C[C@]2(CC[C@@H](NCc3ccccc3)CC2)OC2(CC2)C1=O` [Example 2, (5r,8r)-8-(benzylamino)-12-ethyl-4-oxa-12-azadispiro[2.1.5.3]tridecan-13-one] stands below 500 nM; under `CCN1C[C@]2(CC[C@H](NCc3ccccc3)CC2)OCC1=O` [Example 36, (6s,9s)-9-(benzylamino)-4-ethyl-1-oxa-4-azaspiro[5.5]undecan-3-one], at least 500 nM; under `CCN1CC2(CC2)O[C@]2(CC[C@@H](N(C)Cc3ccccc3)CC2)C1` [Example 17, (5s,8s)-N-benzyl-12-ethyl-N-methyl-4-oxa-12-azadispiro[2.1.5.3]tridecan-8-amine], below 500 nM.

As to `CCN1C[C@]2(CC[C@@H](NC)CC2)OC(C)(C)C1=O` [Example 49, (6r,9r)-4-ethyl-2,2-dimethyl-9-(methylamino)-1-oxa-4-azaspiro[5.5]undecan-3-one acetate], the Ki was at least 500 nM.

`CCN1C[C@]2(CC[C@@H](NCCc3ccccc3)CC2)OC2(CC2)C1=O` [Example 7, (5r,8r)-12-ethyl-8-[(2-phenylethyl)amino]-4-oxa-12-azadispiro[2.1.5.3]tridecan-13-one] gave a Ki below 100 nM. With `CCN1C[C@]2(CC[C@H](N(C)CC(C)C)CC2)OCC1=O` [Example 38, (6s,9s)-4-ethyl-9-(isobutyl(methyl)amino)-1-oxa-4-azaspiro[5.5]undecan-3-one], the Ki is below 500 nM. For `CCN1C[C@]2(CC[C@H](N(C)CC(C)C)CC2)OC(C)(C)C1=O` [Example 54, (6s,9s)-4-ethyl-9-(isobutyl(methyl)amino)-2,2-dimethyl-1-oxa-4-azaspiro[5.5]undecan-3-one], the Ki is below 500 nM.
